Measured values published in patent publication US10017520B2, “Myc modulators and uses thereof” (Massachusetts Institute of Technology, priority 2014, dated 2018).

Experiments:
Format in all cases: cell-based
c-Myc = c-Myc reporter gene assay (Qiagen) in HEK293T cells; conditions: Homo sapiens, HEK-293T, 16 h, treatment 16 hours, Firefly/Renilla ratio
Procedure: Compound 1's activity against Myc was measured as a Firefly/Renilla ratio, using the Myc reporter assay (Qiagen) in HEK293T cells after treatment with compound 1 for 16 hours. Results are expressed as a mean+/−SD (n=3). SD: standard deviation.
Select compounds described herein that were SMM assay positives were evaluated in several versions of a c-Myc reporter gene assay, including a commercial assay from Qiagen. The compounds' activities against c-Myc were measured as a Firefly/Renilla ratio, using the Myc reporter assay (Qiagen) in HEK293T cells after treatment with the compounds for 16 hours.

Namalwa cells = experiment: Cell viability, CELL TITER GLO assay (Promega), Namalwa cells
Procedure: (§1) FIGS. 2A to 2E show exemplary results of cell viability assay of compound 1. […] Results were expressed as a mean+/−SEM (n=3). RLU: Relative Luminescence Units.
(§2) The effect of compound 1 on cell viability in several cancer cell lines were determined. The cancer cell lines employed in the assay included those corresponding to hematopoietic and solid tumors. Exemplary results are shown in FIGS. 2A to 2E, where viability was assessed by CELL TITER GLO assay (Promega). Compound 1 was also submitted in a blinded fashion to the National Cancer Institute's CTD cancer cell line profiling pipeline, which enabled sensitivity profiling in about 800 cancer cell lines with annotation of specific genomic lesions that impart on human cancers (FIGS. 3A to 3B). […] The effects of other compounds described herein on cell viability in several cancer cell lines were also determined, and exemplary results are shown in Table 2, where viability was assessed by CELL TITER GLO assay (Promega).

NCIH1975 cells = experiment: Cell viability, CELL TITER GLO assay (Promega), NCIH1975 cells; conditions: Homo sapiens, NCI-H1975
Procedure: as §1, §2

Eu-Myc Arf −/− cells = experiment: Cell viability, CELL TITER GLO assay (Promega), Eu-Myc Arf −/− cells
Procedure: as §2

Compound	IC50 (c-Myc)	IC50 (Namalwa cells)	IC50 (NCIH1975 cells)	IC50 (Eu-Myc Arf −/− cells)
O=C1NC(=O)/C(=C/c2ccc(Sc3nc4ccccc4[nH]3)o2)N1 [Compound 2, (Z)-5-((5-((1H-benzo[d]imidazol-2-yl)thio)furan-2-yl)methylene)imidazolidine-2,4-dione]	7.5 µM	> 50 µM	> 50 µM	> 50 µM
CC(C)N1C(=O)S/C(=C\c2ccc(Sc3nc4ccccc4s3)o2)C1=O [Compound 3, (Z)-5-((5-(benzo[d]thiazol-2-ylthio)furan-2-yl)methylene)-3-isopropylthiazolidine-2,4-dione]	5.72 µM	31.1 µM	> 50 µM	> 50 µM
CC(C)N1C(=O)S/C(=C\c2ccc(Sc3nc4ccccc4o3)o2)C1=O [Compound 6, (Z)-5-((5-(benzo[d]oxazol-2-ylthio)furan-2-yl)methylene)-3-isopropylthiazolidine-2,4-dione]	9.39 µM	37.2 µM	> 50 µM	> 50 µM
O=C1C/C(=C\c2ccc(Sc3nc4ccccc4[nH]3)o2)C(=O)N1 [Compound 9, (E)-3-((5-((1H-benzo[d]imidazol-2-yl)thio)furan-2-yl)methylene)pyrrolidine-2,5-dione]	9.02 µM	> 50 µM	> 50 µM	> 50 µM
CC(C)N1C(=O)S/C(=C\c2ccc(Sc3nc4cccnc4[nH]3)o2)C1=O [Compound 10, (Z)-5-((5-((3H-imidazo[4,5-b]pyridin-2-yl)thio)furan-2-yl)methylene)-3-isopropylthiazolidine-2,4-dione]	5.6 µM	> 50 µM	> 50 µM	33.1 µM
O=C(O)CN1C(=O)S/C(=C\c2ccc(Sc3nc4ccccc4[nH]3)o2)C1=O [Compound 26]	33.6 µM	> 50 µM	> 50 µM	> 50 µM
O=C(CCCC[C@H]1SC[C@H]2NC(=O)N[C@H]21)NCCCN1C(=O)S/C(=C\c2ccc(Sc3nc4ccccc4[nH]3)o2)C1=O [Compound 27, N-(3-((Z)-5-((5-((1H-benzo[d]imidazol-2-yl)thio)furan-2-yl)methylene)-2,4-dioxothiazolidin-3-yl)propyl)-5-((3aR,4R,6aS)-2-oxohexahydro-1H-thieno[3,4-d]imidazol-4-yl)pentanamide]	2.28 µM	12.2 µM	> 50 µM	26 µM
OCc1ccc(Sc2nc3ccccc3[nH]2)o1 [Compound 40, (5-((1H-benzo[d]imidazol-2-yl)thio)furan-2-yl)methanol]	> 40 µM	> 50 µM	> 50 µM	14.1 µM
CC(C)N1C(=O)S/C(=C\c2ccc(Sc3nc4ccc(N)cc4[nH]3)o2)C1=O [Compound 60, (Z)-5-((5-((6-amino-1H-benzo[d]imidazol-2-yl)thio)furan-2-yl)methylene)-3-isopropylthiazolidine-2,4-dione]	4.56 µM	–	–	–
CC(C)N1C(=O)S/C(=C\c2ccc(Sc3nc4ccccc4[nH]3)cc2)C1=O [Compound 64, (Z)-5-(4-((1H-benzo[d]imidazol-2-yl)thio)benzylidene)-3-isopropylthiazolidine-2,4-dione]	1.82 µM	–	–	–
O=C1CSC(=O)N1Cc1ccc(Sc2nc3ccccc3[nH]2)o1 [Compound 67, 3-((5-((1H-benzo[d]imidazol-2-yl)thio)furan-2-yl)methyl)thiazolidine-2,4-dione]	30 µM	–	–	–

Now those with a lower IC50 (c-Myc), led by results:

IC50 (c-Myc)	Compound	IC50 (Namalwa cells)	IC50 (NCIH1975 cells)	IC50 (Eu-Myc Arf −/− cells)
0.79 µM	CC(C)N1C(=O)S/C(=C\c2ccc(Sc3nc4ccc(Cl)cc4[nH]3)o2)C1=O [Compound 4, (Z)-5-((5-((6-chloro-1H-benzo[d]imidazol-2-yl)thio)furan-2-yl)methylene)-3-isopropylthiazolidine-2,4-dione]	12.4 µM	17.3 µM	11 µM
1.19 µM	COc1ccc2nc(Sc3ccc(/C=C4\SC(=O)N(C(C)C)C4=O)o3)[nH]c2c1 [Compound 5, (Z)-3-isopropyl-5-((5-((6-methoxy-1H-benzo[d]imidazol-2-yl)thio)furan-2-yl)methylene)thiazolidine-2,4-dione]	42.1 µM	34.5 µM	> 50 µM
0.83 µM	CC(C)N1C(=O)N/C(=C\c2ccc(Sc3nc4ccccc4[nH]3)o2)C1=O [Compound 8, (Z)-5-((5-((1H-benzo[d]imidazol-2-yl)thio)furan-2-yl)methylene)-3-isopropylimidazolidine-2,4-dione]	> 50 µM	> 50 µM	11.8 µM
1.05 µM	CC(C)N1C(=O)N/C(=C\c2ccc(Sc3nc4ccc(Cl)cc4[nH]3)o2)C1=O [Compound 22, (Z)-5-((5-((6-chloro-1H-benzo[d]imidazol-2-yl)thio)furan-2-yl)methylene)-3-isopropylimidazolidine-2,4-dione]	16.5 µM	45.3 µM	6.09 µM
1.5 µM	Cc1cccc2nc(Sc3ccc(/C=C4\SC(=O)N(C(C)C)C4=O)o3)[nH]c12 [Compound 23, (Z)-3-isopropyl-5-((5-((7-methyl-1H-benzo[d]imidazol-2-yl)thio)furan-2-yl)methylene)thiazolidine-2,4-dione]	33.9 µM	28.2 µM	10.5 µM
0.64 µM	CC(C)N1C(=O)S/C(=C\c2ccc(Sc3nc4ccc(C(F)(F)F)cc4[nH]3)o2)C1=O [Compound 24, (Z)-3-isopropyl-5-((5-((6-(trifluoromethyl)-1H-benzo[d]imidazol-2-yl)thio)furan-2-yl)methylene)thiazolidine-2,4-dione]	7.94 µM	12.5 µM	11.2 µM
0.63 µM	CC(C)N1C(=O)S/C(=C\c2ccc(Sc3nc4cc(Cl)c(Cl)cc4[nH]3)o2)C1=O [Compound 25, (Z)-5-((5-((5,6-dichloro-1H-benzo[d]imidazol-2-yl)thio)furan-2-yl)methylene)-3-isopropylthiazolidine-2,4-dione]	3.95 µM	7.88 µM	5.51 µM
0.98 µM	CC(C)N1C(=O)S/C(=C\c2ccc(Sc3nc4cccc(Cl)c4[nH]3)o2)C1=O [Compound 28, (Z)-5-(5-(((7-chloro-H-benzo[d]imidazol-2-yl)thio)furan-2-yl)methylene)-3-isopropylthiazolidine-2,4-dione]	9.41 µM	15.6 µM	5.36 µM
0.64 µM	CC(C)c1ccc2nc(Sc3ccc(/C=C4\SC(=O)N(C(C)C)C4=O)o3)[nH]c2c1 [Compound 29, (Z)-3-isopropyl-5-((5-((6-isopropyl-1H-benzo[d]imidazol-2-yl)thio)furan-2-yl)methylene)thiazolidine-2,4-dione]	15.3 µM	19.9 µM	13.1 µM
1.63 µM	COc1cccc2nc(Sc3ccc(/C=C4\SC(=O)N(C(C)C)C4=O)o3)[nH]c12 [Compound 30, (Z)-3-isopropyl-5-((5-((7-methoxy-1H-benzo[d]imidazol-2-yl)thio)furan-2-yl)methylene)thiazolidine-2,4-dione]	72 µM	56.3 µM	11.1 µM
0.4 µM	CC(C)N1C(=O)S/C(=C\c2ccc(Sc3nc4ccc(NC(=O)c5ccccc5)cc4[nH]3)o2)C1=O [Compound 61, (Z)—N-(2-((5-((3-isopropyl-2,4-dioxothiazolidin-5-ylidene)methyl)furan-2-yl)thio)-1H-benzo[d]imidazol-6-yl)benzamide]	–	–	–
0.93 µM	CC(=O)Nc1ccc2nc(Sc3ccc(/C=C4\SC(=O)N(C(C)C)C4=O)o3)[nH]c2c1 [Compound 62, (Z)—N-(2-((5-((3-isopropyl-2,4-dioxothiazolidin-5-ylidene)methyl)furan-2-yl)thio)-1H-benzo[d]imidazol-6-yl)acetamide]	–	–	–
1.49 µM	COC(=O)c1ccc2nc(Sc3ccc(/C=C4\SC(=O)N(C(C)C)C4=O)o3)[nH]c2c1 [Compound 63, (Z)-methyl 2-((5-((3-isopropyl-2,4-dioxothiazolidin-5-ylidene)methyl)furan-2-yl)thio)-1H-benzo[d]imidazole-6-carboxylate]	–	–	–
0.99 µM	CC(C)N1C(=O)S/C(=C\c2cccc(Oc3nc4ccccc4[nH]3)c2)C1=O [Compound 65, (Z)-5-(3-((1H-benzo[d]imidazol-2-yl)oxy)benzylidene)-3-isopropylthiazolidine-2,4-dione]	–	–	–
0.54 µM	CC(C)N1C(=O)S/C(=C\c2cc3ccc(Sc4nc5ccccc5[nH]4)cc3o2)C1=O [Compound 68, (Z)-5-((6-((1H-benzo[d]imidazol-2-yl)thio)benzofuran-2-yl)methylene)-3-isopropylthiazolidine-2,4-dione]	–	–	–
